Our source for the Increment %, PGE2 concentration and IC50 values is patent publication US10787425B2, “Thiazolidinedione derivative and use thereof” (INDUSTRY-ACADEMIC COOPERATION FOUNDATION CHOSUN UNIVERSITY, priority 2016, dated 2020).

One experiment concerns A549 cells. The experiment can be described thus: Measurement of PGE2 concentration in A549 cell medium (ELISA). It is filed as cell-based, human. To be noted: for Increment %: PGE2 concentration versus PBS control, 5 μM, 12 hours; for PGE2 concentration: inhibitor 5 μM, medium collected after 12 hours, ELISA. In outline:
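A549 cells in RPMI 1640 with 8% FBS, seeded at 5×10^5 cells/well and grown 24 h at 37° C, 5% CO2; at ~80% confluence treated with 15-PGDH inhibitor at 5 μM in PBS (PBS-only negative control). After 12 h, PGE2 in the medium was measured by ELISA against a standard curve.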
For orientation: ELISA stands for enzyme-linked immunosorbent assay.

A further experiment concerns the target 15-PGDH (Homo sapiens (Human), UniProt P15428). The experiment can be described thus: 15-PGDH inhibitory activity (NADH at 340 nm). As to conditions: concentration inhibiting 50% of 15-PGDH activity; purified 15-PGDH, 21 μM PGE2, 0.25 mM NAD+. It is filed as biochemical. Summed up:
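GST-purified human 15-PGDH (E. coli BL-21 LysS, 10 μg) with 21 μM PGE2 and 0.25 mM NAD+ in 50 mM Tris-HCl pH 7.5, 0.1 mM DTT. Compound tested at 0.0001–64 μM; NADH formation read by absorbance at 340 nm against a standard curve.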

Chain of 15-PGDH (P15428 whole entry): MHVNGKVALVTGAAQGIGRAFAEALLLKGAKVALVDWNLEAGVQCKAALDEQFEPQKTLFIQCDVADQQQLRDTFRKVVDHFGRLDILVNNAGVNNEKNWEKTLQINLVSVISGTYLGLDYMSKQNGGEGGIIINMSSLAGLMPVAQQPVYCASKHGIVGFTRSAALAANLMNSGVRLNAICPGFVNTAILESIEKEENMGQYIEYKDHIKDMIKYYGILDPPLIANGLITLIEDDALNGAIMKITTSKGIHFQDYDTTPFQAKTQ

Take `O=C(CC1CCCC1)Oc1ccc(/C=C2\SC(=O)NC2=O)cc1` [Compound 64, (Z)-4-((2,4-dioxothiazolidin-5-ylidene)methyl)phenyl 2-cyclopentylacetate]: in the experiment with A549 cells, the Increment % was 25.34% and the PGE2 concentration came to 199.4576 pg/mL. Moreover, the IC50 (usually the point on the concentration scale where inhibition reaches its midpoint) against 15-PGDH was 52.1 nM.
The like results for `O=C(CCC1CCCC1)Oc1ccc(/C=C2\SC(=O)NC2=O)cc1` [Compound 65, (Z)-4-((2,4-dioxothiazolidin-5-ylidene)methyl)phenyl 3-cyclopentylpropanoate] were, in that order, 78.97%, 284.8007 pg/mL and 23.2 nM.
Turning to `O=C1NC(=O)/C(=C/c2ccc(OC(=O)C3CCCCC3)cc2)S1` [Compound 66, (Z)-4-((2,4-dioxothiazolidin-5-ylidene)methyl)phenyl cyclohexanecarboxylate], in the experiment on A549 cells, the Increment % was found to be 2.49% and the PGE2 concentration stood at 132.3901 pg/mL. On 15-PGDH, this molecule displayed a concentration for half-maximal inhibition (IC50) of 88.8 nM.
The like results for `O=C(CC1CCCCC1)Oc1ccc(/C=C2\SC(=O)NC2=O)cc1` [Compound 67, (Z)-4-((2,4-dioxothiazolidin-5-ylidene)methyl)phenyl 2-cyclohexylacetate] were, in that order, 8.34%, 139.9468 pg/mL and 30.5 nM.
The like results for `O=C(CCCC1CCCCC1)Oc1ccc(/C=C2\SC(=O)NC2=O)cc1` [Compound 69, (Z)-4-((2,4-dioxothiazolidin-5-ylidene)methyl)phenyl 4-cyclohexylbutanoate] were, in that order, 134.45%, 302.8477 pg/mL and 26.1 nM.
With `O=C(CCCCC1CCCCC1)Oc1ccc(/C=C2\SC(=O)NC2=O)cc1` [Compound 70, (Z)-4-((2,4-dioxothiazolidin-5-ylidene)methyl)phenyl 5-cyclohexylpentanoate], in the experiment with A549 cells, the Increment % stood at 69.97% and the PGE2 concentration was 219.5565 pg/mL. Moreover, at 15-PGDH, the concentration for half-maximal inhibition (IC50) was determined as 50.4 nM.
As to `O=C(Cc1ccccc1)Oc1ccc(/C=C2\SC(=O)NC2=O)cc1` [Compound 72, (Z)-4-((2,4-dioxothiazolidin-5-ylidene)methyl)phenyl 2-phenylacetate], in the experiment on A549 cells, the Increment % is −18.07% and the PGE2 concentration was 105.832 pg/mL. This molecule also yielded an IC50 on 15-PGDH of 108 nM.
Take `O=C(CCc1ccccc1)Oc1ccc(/C=C2\SC(=O)NC2=O)cc1` [Compound 73, (Z)-4-((2,4-dioxothiazolidin-5-ylidene)methyl)phenyl 3-phenylpropanoate]: in the experiment on A549 cells, the Increment % is 102.39% and the PGE2 concentration turned out to be 261.4347 pg/mL. For the same molecule, at 15-PGDH, the IC50 came to 54.4 nM.
With `O=C(CCCc1ccccc1)Oc1ccc(/C=C2\SC(=O)NC2=O)cc1` [Compound 74, (Z)-4-((2,4-dioxothiazolidin-5-ylidene)methyl)phenyl 4-phenylbutanoate], in the experiment with A549 cells, the Increment % is 27.71% and the PGE2 concentration is 164.9677 pg/mL. Further, on 15-PGDH, half-maximal inhibition (IC50) was put at 50.7 nM.
As for `O=C(CCCCc1ccccc1)Oc1ccc(/C=C2\SC(=O)NC2=O)cc1` [Compound 75, (Z)-4-((2,4-dioxothiazolidin-5-ylidene)methyl)phenyl 5-phenylpentanoate], in the experiment on A549 cells, the Increment % came to 23.31% and the PGE2 concentration was determined as 159.2841 pg/mL. The IC50 on 15-PGDH was 92.1 nM.
As for `O=C1NC(=O)/C(=C/c2cccc(OC(=O)C3CC3)c2Cl)S1` [Compound 76, (Z)-2-chloro-3-((2,4-dioxothiazolidin-5-ylidene)methyl)phenyl cyclopropanecarboxylate], in the experiment on A549 cells, the Increment % is reported as 3.34% and the PGE2 concentration turned out to be 123.6726 pg/mL. The molecule also had a 50% inhibitory concentration (IC50) against 15-PGDH of 542 nM.
With `O=C1NC(=O)/C(=C/c2cccc(OC(=O)C3CCC3)c2Cl)S1` [Compound 77, (Z)-2-chloro-3-((2,4-dioxothiazolidin-5-ylidene)methyl)phenyl cyclobutanecarboxylate], in the experiment with A549 cells, the Increment % is reported as 56.54% and the PGE2 concentration worked out at 187.3399 pg/mL. Further, the IC50 on 15-PGDH was found to be 482 nM.
For `O=C1NC(=O)/C(=C/c2cccc(OC(=O)C3CCCC3)c2Cl)S1` [Compound 78, (Z)-2-chloro-3-((2,4-dioxothiazolidin-5-ylidene)methyl)phenyl cyclopentanecarboxylate], in the experiment on A549 cells, the Increment % is listed as −67.32% and the PGE2 concentration worked out at 39.11 pg/mL. For the same molecule, half-maximal inhibition against 15-PGDH (IC50) required 56.2 nM.
On to `O=C(CC1CCCC1)Oc1cccc(/C=C2\SC(=O)NC2=O)c1Cl` [Compound 79, (Z)-2-chloro-3-((2,4-dioxothiazolidin-5-ylidene)methyl)phenyl 2-cyclopentylacetate], for which, in the experiment on A549 cells, the Increment % is recorded as −2.34% and the PGE2 concentration amounted to 116.875 pg/mL. Also, at 15-PGDH, 42.8 nM corresponded to half-maximal inhibition (IC50).
In the case of `O=C(CCC1CCCC1)Oc1cccc(/C=C2\SC(=O)NC2=O)c1Cl` [Compound 80, (Z)-2-chloro-3-((2,4-dioxothiazolidin-5-ylidene)methyl)phenyl 3-cyclopentylpropanoate], in the experiment on A549 cells, the Increment % was 97.99% and the PGE2 concentration stood at 236.9453 pg/mL. For the same molecule, on 15-PGDH, 34.7 nM corresponded to half-maximal inhibition (IC50).
As to `O=C(CC1CCCCC1)Oc1cccc(/C=C2\SC(=O)NC2=O)c1Cl` [Compound 82, (Z)-2-chloro-3-((2,4-dioxothiazolidin-5-ylidene)methyl)phenyl 2-cyclohexylacetate], in the experiment with A549 cells, the Increment % came out at 189.97% and the PGE2 concentration was 610.1325 pg/mL. For the same molecule, at 15-PGDH, it took 32.7 nM to reach half-maximal inhibition (IC50).
Take `O=C(CCCC1CCCCC1)Oc1cccc(/C=C2\SC(=O)NC2=O)c1Cl` [Compound 84, (Z)-2-chloro-3-((2,4-dioxothiazolidin-5-ylidene)methyl)phenyl 4-cyclohexylbutanoate]: in the experiment with A549 cells, the Increment % is 16.67% and the PGE2 concentration was 245.488 pg/mL. Besides, the half-inhibitory concentration (IC50) against 15-PGDH is 22.5 nM.
With `O=C(CCCCC1CCCCC1)Oc1cccc(/C=C2\SC(=O)NC2=O)c1Cl` [Compound 85, (Z)-2-chloro-3-((2,4-dioxothiazolidin-5-ylidene)methyl)phenyl 5-cyclohexylpentanoate], in the experiment with A549 cells, the Increment % is recorded as −7.79% and the PGE2 concentration stood at 194.0212 pg/mL. At 15-PGDH, the IC50 was determined as 25.6 nM.
Regarding `O=C(O)c1ccccc1.O=C1NC(=O)/C(=C/c2cccc(OC(=O)c3ccccc3)c2Cl)S1` [Compound 86, (Z)-2-chloro-3-((2,4-dioxothiazolidin-5-ylidene)methyl)phenyl benzoate], in the experiment with A549 cells, the Increment % is given as −12.12% and the PGE2 concentration was 184.9103 pg/mL. Besides, on 15-PGDH, the half-maximal inhibitory concentration (IC50) turned out to be 54.1 nM.
In the case of `O=C(Cc1ccccc1)Oc1cccc(/C=C2\SC(=O)NC2=O)c1Cl` [Compound 87, (Z)-2-chloro-3-((2,4-dioxothiazolidin-5-ylidene)methyl)phenyl 2-phenylacetate], in the experiment with A549 cells, the Increment % was determined as 89.77% and the PGE2 concentration was determined as 399.2994 pg/mL. Inhibition against 15-PGDH was half-maximal at 105 nM (IC50).
In the case of `O=C(CCc1ccccc1)Oc1cccc(/C=C2\SC(=O)NC2=O)c1Cl` [Compound 88, (Z)-2-chloro-3-((2,4-dioxothiazolidin-5-ylidene)methyl)phenyl 3-phenylpropanoate], in the experiment with A549 cells, the Increment % is 113.47% and the PGE2 concentration amounted to 449.1671 pg/mL. On 15-PGDH, this molecule had a half-maximal inhibitory concentration (IC50) of 22.5 nM.
